Data: patent EP4818168A1, “FUSED RING COMPOUND, PHARMACEUTICAL COMPOSITION THEREOF AND USE THEREOF” (priority 2023, dated 2025)
Like-named read-outs stand apart in the source and are kept apart here.

Tests used:
AURKA = biological target: T1, AURKA (Homo sapiens, UniProt O14965); type: cell-based; conditions: Jurkat cells, 24 h
T1 construct: endogenous in cells; host or cells: Jurkat cells
T1 sequence (O14965 1-403): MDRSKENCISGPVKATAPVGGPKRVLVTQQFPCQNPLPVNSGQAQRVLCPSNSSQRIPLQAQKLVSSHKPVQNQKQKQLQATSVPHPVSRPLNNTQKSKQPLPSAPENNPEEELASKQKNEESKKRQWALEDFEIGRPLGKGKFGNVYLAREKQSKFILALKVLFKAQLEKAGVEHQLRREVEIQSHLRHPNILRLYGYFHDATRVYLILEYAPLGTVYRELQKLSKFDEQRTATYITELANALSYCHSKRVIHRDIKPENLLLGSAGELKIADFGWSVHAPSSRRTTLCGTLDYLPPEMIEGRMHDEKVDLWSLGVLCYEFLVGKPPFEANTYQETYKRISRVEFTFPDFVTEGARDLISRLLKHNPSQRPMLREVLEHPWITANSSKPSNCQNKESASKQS
Procedure, shortened: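 AURKA degradation read by western blot: band signal, fluorescent or chemiluminescent, curve-fitted to derive DC50. Cells were Jurkat, plated at 1×10^6 cells/500 µL with compound, then lysed and blotted onto nitrocellulose, primary antibody overnight at 4°C.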

H82 cells = experiment: cells; type: cell-based; conditions: Homo sapiens
Procedure, shortened: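 After 6 days' compound treatment at 37 °C (final DMSO 0.1%, RPMI1640/10% FBS), viable H82 cells were quantified by ATP-dependent CellTiter-Glo luminescence. Remaining activity was calculated against DMSO and medium wells, and a sigmoidal fit gave IC50.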

Mouse PK study = type: in vivo; conditions: male CD1 mice; for C0/Cmax / half-life / AUC(0-t) at 24 h / clearance / Vd / Tmax: plasma; for half-life / AUC(0-t) at 24 h / clearance / Vd / Tmax: mouse; for AUC(0-t) at 24 h: read-out: AUC0-24; for clearance: read-out: CLp; for Vd: read-out: Vss
Experimental: Male CD1 mice (5-8 weeks old) were administered intravenously (IV) at a dose of 1 mg/kg by tail vein bolus or orally (PO) at doses of 10 mg/kg and 40 mg/kg by gavage. The compound was formulated in a vehicle of 10% DMSO + 10% Solutol HS15 + 80% saline. All animals were given free access to food and water during the experiment. […] Blood samples were centrifuged at 3500 g for 5 min, and the resulting plasma was analyzed by an LC-MS/MS method. The PK parameters were calculated using WinNonlin software (Phoenix®, version 8.3) through non-compartmental analysis methods.

HCC1806 cells = experiment: CTG assay of compound inhibition on cell viability (HCC1806 cells); type: cell-based; conditions: Homo sapiens, HCC1806, 144 h, read-out: IC50 in HCC1806 Cells
Procedure, shortened: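 HCC1806 cells in RPMI1640 + 10% FBS were exposed to serially diluted compound (0.1% DMSO final) for 6 days at 37°C, 5% CO2. Viability was read as CellTiter-Glo luminescence (ATP) and normalised to DMSO and medium controls. IC50 came from a nonlinear-regression dose-survival curve.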

| SMILES | Percentage of AURKA Degradation Induced by 100 nM Compound in Jurkat Cells (AURKA; Table 2) | Percentage of AURKA Degradation Induced by 1 µM Compound in Jurkat Cells (AURKA; Table 2) | C0/Cmax (Mouse PK study; IV 1 mg/kg) [ng/mL] | F (Mouse PK study; PO 10 mg/kg) [%] | C0/Cmax (Mouse PK study; PO 10 mg/kg) [ng/mL] | F (Mouse PK study; PO 40 mg/kg) [%] | C0/Cmax (Mouse PK study; PO 40 mg/kg) [ng/mL] | half-life (Mouse PK study; IV 1 mg/kg) [h] | AUC(0-t) at 24 h (Mouse PK study; IV 1 mg/kg) [ng·h/mL] | clearance (Mouse PK study; IV 1 mg/kg) [mL/min/kg] | Vd (Mouse PK study; IV 1 mg/kg) [L/kg] | Tmax (Mouse PK study; PO 10 mg/kg) [h] | half-life (Mouse PK study; PO 10 mg/kg) [h] | AUC(0-t) at 24 h (Mouse PK study; PO 10 mg/kg) [ng·h/mL] | Tmax (Mouse PK study; PO 40 mg/kg) [h] | half-life (Mouse PK study; PO 40 mg/kg) [h] | AUC(0-t) at 24 h (Mouse PK study; PO 40 mg/kg) [ng·h/mL] | Percentage of AURKA Degradation Induced by 100 nM Compound in Jurkat Cells (AURKA; Table 1) | Percentage of AURKA Degradation Induced by 1 µM Compound in Jurkat Cells (AURKA; Table 1) | IC50 (HCC1806 cells) [nM] | also measured |
| --- | --- | --- | --- | --- | --- | --- | --- | --- | --- | --- | --- | --- | --- | --- | --- | --- | --- | --- | --- | --- | --- |
| O=C1CCN(c2ccc(N3CCO[C@H](C(=O)N4CCN(c5ccc(Nc6ncc7c(n6)-c6ccc(Cl)cc6C(c6c(F)cccc6F)=NC7)cc5)CC4)C3)nc2)C(=O)N1 [Compound A307] | +++ (Degradation > 70%) | +++ (Degradation > 70%) | 1527 | 79.7 | 2460 | 80.6 | 7283 | 2.28 | 2450 | 6.33 | 1.04 | 2 | 2.41 | 19500 | 3.33 | 2.37 | 78900 |  |  |  | IC50 (H82 cells; NCI-H82, H82 cells, 4000 cells/well, CellTiter-Glo, read-out: IC50 in H82 Cells): < 1000 nM |
| O=C1CCN(c2ccc(N3CCC4(CC3)CC(N3CCN(C56CC(Nc7ncc8c(n7)-c7ccc(Cl)cc7C(c7c(F)cccc7F)=NC8)(C5)C6)C(=O)C3)CO4)nc2)C(=O)N1 (stereo not drawn) [Compound A321] | +++ (Degradation > 70%) | +++ (Degradation > 70%) | 1307 | 157 | 4007 | 130 | 13233 | 1.89 | 2630 | 6.16 | 0.97 | 3.33 | 2.13 | 41400 | 3.33 | 1.97 | 137000 |  |  |  | IC50 (H82 cells; NCI-H82, read-out: IC50 in H82 Cells): < 1000 nM |
| COc1cc(Nc2ncc3c(n2)-c2ccc(Cl)cc2C(c2c(F)cccc2OC)=NC3)ccc1C(=O)N[C@H]1C[C@H](C#Cc2ccc(N3CCC(=O)NC3=O)cc2)C1 [Compound A51] |  |  |  |  |  |  |  |  |  |  |  |  |  |  |  |  |  | ++ (30% < Degradation ≤ 70%) | +++ (Degradation > 70%) | 1000 to 10000 |  |
| COc1cc(Nc2ncc3c(n2)-c2ccc(Cl)cc2C(c2c(F)cccc2OC)=NC3)ccc1C(=O)NCCN1CCN(c2ncc(N3CCC(=O)NC3=O)s2)CC1 [Compound A24] |  |  |  |  |  |  |  |  |  |  |  |  |  |  |  |  |  | +++ (Degradation > 70%) | ++ (30% < Degradation ≤ 70%) | < 1000 |  |
| COc1cc(Nc2ncc3c(n2)-c2ccc(Cl)cc2C(c2c(F)cccc2OC)=NC3)ccc1C(=O)NCCN1CCN(c2ccc(N3CCC(=O)NC3=O)nc2)CC1 [Compound A30] |  |  |  |  |  |  |  |  |  |  |  |  |  |  |  |  |  | ++ (30% < Degradation ≤ 70%) | ++ (30% < Degradation ≤ 70%) | < 1000 |  |
| COc1cc(Nc2ncc3c(n2)-c2ccc(Cl)cc2C(c2c(F)cccc2OC)=NC3)ccc1C(=O)NCCN1CCC(c2ccc(N3CCC(=O)NC3=O)cn2)CC1 [Compound A16] |  |  |  |  |  |  |  |  |  |  |  |  |  |  |  |  |  | +++ (Degradation > 70%) | ++ (30% < Degradation ≤ 70%) | < 1000 |  |
